Laboratory results: patent US9642874B2, “Compositions of selenoorganic compounds and methods of use thereof” (Alltech, Inc., priority 2014, dated 2017)

How the values were obtained:
Assay type in all cases: cell-based
Foxo1 = assay: Western blot of pFoxo1T24 in primary mouse hepatocytes; settings: 100 nM insulin 6 hours, or Compounds CDE both doses 24 hours + 6 hours
Method: (§1) The overnight-acclimated hepatocytes were washed twice with PBS (to remove any residual FBS and other additives in the TRL hepatocyte maintenance medium, pretreated with control (water) or selenium Compounds CDE (150 or 300 ppb of each selenium compound) in DMEM/F12 media supplemented with 10% fetal bovine serum (FBS) for 24 hr. These cells were then washed twice with PBS and incubated with the same dose of selenium Compounds CDE (150 or 300 ppb) in the presence or absence of insulin (10 or 100 nM, Sigma), 0.1 mM 8-CPT (Sigma) or 0.5 μM Dex (Sigma) in serum-free and glucose-free DMEM media (Invitrogen) supplemented with 20 mM lactose (Sigma) and 2 mM pyruvate (Sigma) and 15 mM HEPES (Sigma) for another 6 hours. […]
(§2) After the above described treatments, primary mouse hepatocytes were rinsed with ice-cold PBS and lysed in the ice-cold RIPA buffer containing complete proteinase and phosphatase inhibitors (Thermo-Fisher Scientific, Waltham, Mass.) on ice for 30 min Cell lysates were collected using a cell scraper and transfer pipette and then centrifuged at 12000×g for 30 min at 4° C. to remove the DNA pellet and obtain the protein extract. Protein levels in the supernatant of these cell lysates were determined using the Pierce Micro-BCA protein assay kit (Thermo Scientific-Piece Biotechnology, Rockford, Ill.) according to the manufacturer's protocol. […]

G6pc = G6pc mRNA expression (QRT-PCR) in primary mouse hepatocytes
Method: The overnight-acclimated hepatocytes were washed twice with PBS (to remove any residual FBS and other additives in the TRL hepatocyte maintenance medium, pretreated with control (water) or selenium Compounds CDE (150 or 300 ppb of each selenium compound) in DMEM/F12 media supplemented with 10% fetal bovine serum (FBS) for 24 hr. These cells were then washed twice with PBS and incubated with the same dose of selenium Compounds CDE (150 or 300 ppb) in the presence or absence of insulin (10 or 100 nM, Sigma), 0.1 mM 8-CPT (Sigma) or 0.5 μM Dex (Sigma) in serum-free and glucose-free DMEM media (Invitrogen) supplemented with 20 mM lactose (Sigma) and 2 mM pyruvate (Sigma) and 15 mM HEPES (Sigma) for another 6 hours. After treatments, cell media were collected and subjected to glucose assay and toxicological studies of lactate dehydrogenase (LDH) and cells were collected for RNA and protein analysis.
Total RNA from these cells was isolated using Trizol (Invitrogen) according to the Manufacturer's protocol and then incubated with DNase I to remove any potential contaminated genomic DNA. Then RNA samples were subjected to real-time PCR analysis using the Applied-Bioscience's RT kit and predesigned Taqman probes (Invitrogen), as described previously (Lan et al EMBO J 2003). Three to four samples were analyzed in each treatment group. […]

Foxo3 = assay: Western blot of pFoxo3T32 in primary mouse hepatocytes; settings: 100 nM insulin 6 hours, or Compounds CDE both doses 24 hours + 6 hours
Method: as §1, §2

“insulin: insulin (10 or 100 nM, Sigma) used as comparator and cotreatment” was tested, and the “pFoxo1T24 protein level (in words)” value (Foxo1) was “significant increase”, the “8-CPT/Dex-induced G6pc expression” value (G6pc; insulin 10 and 100 nM, vs 8-CPT/Dex group) was “significantly decreased 8-CPT/Dex-induced G6pc expression” and the G6pc expression (G6pc; insulin alone (10 and 100 nM), 6 hours) was “significantly inhibited G6pc expression”. For the same substance, the “pFoxo3T32 protein level (in words)” value (Foxo3) was “significant increase”.
